# Results: publication PMC7026418, “The kinase polypharmacology landscape of clinical PARP inhibitors” (Scientific Reports, 2020)
# Read-outs that look alike come from different tables or passages of the source.
# Legend:
# Assay in all cases: biochemical
# DYRK1B = DYRK1B (Homo sapiens, UniProt Q9Y463); conditions: read-out: % inhibition
# Method: Reaction Biology’s HotSpot platform (http://www.reactionbiology.com)[40], which employs a radiometric assay to measure phosphorylation of substrate, was used to validate the hits from the kinome binding assay. The radiometric assay is designed to directly detect the true product without the use of modified substrates, coupling enzymes, or detection antibodies. Test or control compounds are incubated with kinase, substrate, cofactors, and radioisotope-labelled ATP (33P-ɣ-ATP). The reaction mixtures are then spotted onto filter papers, which bind the radioisotope-labelled catalytic product, for subsequent measurement. Unreacted phosphate is removed via washing the filters[41]. Next, we decided to validate the observed activities in an orthogonal experimental method, namely direct inhibition of kinase catalytic activity using Reaction Biology’s HotSpot platform (http://www.reactionbiology.com)[40]. This platform employs a widely-used and validated radiometric assay which measures inhibition of the incorporation of radiolabelled phosphate into protein substrate[41].
# HIPK1 [1] = molecular target: T1, HIPK1 (Homo sapiens, UniProt Q86Z02); conditions: read-out: Niraparib
# MYLK4 = molecular target: T2, MYLK4 (Homo sapiens, UniProt Q86YV6); design: Reaction Biology HotSpot radiometric 33P-ATP catalytic assay at Km ATP; percent inhibition versus DMSO, mean n=2; conditions: Km ATP
# T2 sequence (Q86YV6 1-388): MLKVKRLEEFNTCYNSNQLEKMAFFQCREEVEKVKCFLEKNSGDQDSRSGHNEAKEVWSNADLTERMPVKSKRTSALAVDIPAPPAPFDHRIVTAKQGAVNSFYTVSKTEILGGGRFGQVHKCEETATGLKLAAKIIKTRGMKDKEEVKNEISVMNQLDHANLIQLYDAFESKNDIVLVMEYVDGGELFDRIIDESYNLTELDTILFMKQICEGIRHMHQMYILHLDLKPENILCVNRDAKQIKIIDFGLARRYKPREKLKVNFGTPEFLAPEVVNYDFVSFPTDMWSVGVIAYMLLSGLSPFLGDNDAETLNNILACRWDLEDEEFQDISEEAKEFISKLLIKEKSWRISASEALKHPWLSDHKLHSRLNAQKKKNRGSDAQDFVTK
# Excerpt: (§1) Unreacted phosphate is removed via washing the filters.
# HASPIN = molecular target: T3, HASPIN (Homo sapiens, UniProt Q8TF76); design: Reaction Biology HotSpot radiometric 33P-ATP catalytic assay at Km ATP; percent inhibition versus DMSO, mean n=2; conditions: Km ATP
# T3 sequence (Q8TF76 1-798): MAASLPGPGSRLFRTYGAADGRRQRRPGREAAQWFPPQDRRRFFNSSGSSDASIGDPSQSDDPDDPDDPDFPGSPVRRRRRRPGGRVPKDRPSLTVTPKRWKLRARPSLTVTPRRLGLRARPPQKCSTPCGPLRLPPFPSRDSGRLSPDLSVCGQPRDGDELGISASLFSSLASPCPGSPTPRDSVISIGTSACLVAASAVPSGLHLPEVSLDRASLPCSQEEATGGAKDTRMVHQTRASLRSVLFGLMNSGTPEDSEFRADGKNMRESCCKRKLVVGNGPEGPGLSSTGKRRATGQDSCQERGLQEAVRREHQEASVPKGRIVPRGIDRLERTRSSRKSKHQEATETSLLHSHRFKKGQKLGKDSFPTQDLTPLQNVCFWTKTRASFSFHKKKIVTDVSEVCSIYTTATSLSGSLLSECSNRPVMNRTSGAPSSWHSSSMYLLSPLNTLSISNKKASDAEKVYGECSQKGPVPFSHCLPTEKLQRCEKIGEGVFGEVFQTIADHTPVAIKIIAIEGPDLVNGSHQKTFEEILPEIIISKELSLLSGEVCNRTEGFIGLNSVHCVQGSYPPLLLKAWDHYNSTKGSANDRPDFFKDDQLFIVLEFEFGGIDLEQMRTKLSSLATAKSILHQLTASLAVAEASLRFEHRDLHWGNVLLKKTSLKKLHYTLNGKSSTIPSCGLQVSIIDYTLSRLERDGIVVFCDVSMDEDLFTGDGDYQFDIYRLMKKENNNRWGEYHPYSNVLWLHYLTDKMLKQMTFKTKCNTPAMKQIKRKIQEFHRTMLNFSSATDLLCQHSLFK
# Excerpt: as §1
# PIM1 = PIM1 (Homo sapiens, UniProt P11309); design: Reaction Biology HotSpot radiometric 33P-ATP catalytic assay at Km ATP; percent inhibition versus DMSO, mean n=2; conditions: Km ATP
# Excerpt: as §1
# PIM3 = PIM3 (Homo sapiens, UniProt Q86V86); design: Reaction Biology HotSpot radiometric 33P-ATP catalytic assay at Km ATP; percent inhibition versus DMSO, mean n=2; conditions: Km ATP
# Excerpt: as §1
# CDK16 = molecular target: T4, CDK16 (Homo sapiens, UniProt Q00536); design: Reaction Biology HotSpot radiometric 33P-ATP catalytic assay at Km ATP; percent inhibition versus DMSO, mean n=2; conditions: Km ATP
# T4 construct: with cyclin Y
# Excerpt: as §1
# HIPK1 [2] = molecular target: T1, HIPK1; design: Reaction Biology HotSpot radiometric 33P-ATP catalytic assay at Km ATP; percent inhibition versus DMSO, mean n=2; conditions: Km ATP
# Excerpt: as §1
# CDK4-cyclinD3 = CDK4-cyclinD3 (Homo sapiens, UniProt P11802); design: Reaction Biology HotSpot radiometric 33P-ATP catalytic assay at Km ATP; percent inhibition versus DMSO, mean n=2; conditions: Km ATP
# Excerpt: as §1
# STK17A = STK17A (Homo sapiens, UniProt Q9UEE5); design: Reaction Biology HotSpot radiometric 33P-ATP catalytic assay at Km ATP; percent inhibition versus DMSO, mean n=2; conditions: Km ATP
# Excerpt: as §1
# T1 sequence (Q86Z02 whole entry): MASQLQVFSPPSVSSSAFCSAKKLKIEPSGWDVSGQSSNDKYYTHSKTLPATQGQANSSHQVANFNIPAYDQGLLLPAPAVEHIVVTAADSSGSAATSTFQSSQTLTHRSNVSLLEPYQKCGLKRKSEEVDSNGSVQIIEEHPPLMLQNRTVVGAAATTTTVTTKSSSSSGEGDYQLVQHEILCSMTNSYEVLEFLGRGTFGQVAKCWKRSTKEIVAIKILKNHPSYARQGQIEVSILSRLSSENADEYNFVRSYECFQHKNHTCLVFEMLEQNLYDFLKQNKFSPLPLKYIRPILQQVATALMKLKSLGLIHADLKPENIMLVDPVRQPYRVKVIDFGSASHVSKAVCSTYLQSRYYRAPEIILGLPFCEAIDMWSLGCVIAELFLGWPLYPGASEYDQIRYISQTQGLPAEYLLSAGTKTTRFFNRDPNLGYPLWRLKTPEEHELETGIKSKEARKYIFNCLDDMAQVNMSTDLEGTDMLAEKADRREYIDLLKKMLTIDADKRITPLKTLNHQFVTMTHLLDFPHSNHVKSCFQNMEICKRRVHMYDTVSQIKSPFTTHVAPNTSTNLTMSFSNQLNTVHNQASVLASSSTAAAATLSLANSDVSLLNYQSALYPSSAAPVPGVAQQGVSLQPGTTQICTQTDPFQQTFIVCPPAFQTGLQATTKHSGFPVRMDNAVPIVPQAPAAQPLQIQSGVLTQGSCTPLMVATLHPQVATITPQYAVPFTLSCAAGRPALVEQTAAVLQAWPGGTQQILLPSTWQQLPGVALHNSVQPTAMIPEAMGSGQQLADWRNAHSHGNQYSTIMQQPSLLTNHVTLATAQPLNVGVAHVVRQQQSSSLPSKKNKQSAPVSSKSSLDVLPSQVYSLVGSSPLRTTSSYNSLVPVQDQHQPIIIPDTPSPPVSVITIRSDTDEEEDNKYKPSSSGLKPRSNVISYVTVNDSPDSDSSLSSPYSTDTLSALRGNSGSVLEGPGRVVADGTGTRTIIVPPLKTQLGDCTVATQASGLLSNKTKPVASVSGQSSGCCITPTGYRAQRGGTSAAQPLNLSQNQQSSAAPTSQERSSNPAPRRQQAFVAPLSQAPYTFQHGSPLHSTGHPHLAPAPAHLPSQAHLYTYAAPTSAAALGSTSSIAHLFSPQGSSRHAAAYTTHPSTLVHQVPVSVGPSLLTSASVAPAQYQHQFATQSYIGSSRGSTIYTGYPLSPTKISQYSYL
# CDK4-cyclinD3, sequence (P11802 whole entry): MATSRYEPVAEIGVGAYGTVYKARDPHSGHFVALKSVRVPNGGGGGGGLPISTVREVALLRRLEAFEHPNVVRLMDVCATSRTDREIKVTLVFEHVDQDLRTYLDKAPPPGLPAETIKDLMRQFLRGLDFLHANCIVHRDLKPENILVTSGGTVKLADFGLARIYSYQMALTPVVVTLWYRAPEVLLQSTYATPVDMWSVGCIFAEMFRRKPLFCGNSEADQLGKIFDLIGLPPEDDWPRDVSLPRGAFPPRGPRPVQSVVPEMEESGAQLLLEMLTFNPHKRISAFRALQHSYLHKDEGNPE
# CDK4-cyclinD3, sequence (P30281 whole entry partner): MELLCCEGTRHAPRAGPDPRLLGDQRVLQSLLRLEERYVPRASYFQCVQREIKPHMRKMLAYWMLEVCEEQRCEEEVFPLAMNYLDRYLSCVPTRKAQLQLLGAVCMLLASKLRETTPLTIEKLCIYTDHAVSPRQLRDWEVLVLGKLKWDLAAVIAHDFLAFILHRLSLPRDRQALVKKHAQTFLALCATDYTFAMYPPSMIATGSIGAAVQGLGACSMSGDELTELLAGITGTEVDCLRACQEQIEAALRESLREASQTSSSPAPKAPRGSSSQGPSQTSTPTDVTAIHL
# PIM1, sequence (P11309 whole entry): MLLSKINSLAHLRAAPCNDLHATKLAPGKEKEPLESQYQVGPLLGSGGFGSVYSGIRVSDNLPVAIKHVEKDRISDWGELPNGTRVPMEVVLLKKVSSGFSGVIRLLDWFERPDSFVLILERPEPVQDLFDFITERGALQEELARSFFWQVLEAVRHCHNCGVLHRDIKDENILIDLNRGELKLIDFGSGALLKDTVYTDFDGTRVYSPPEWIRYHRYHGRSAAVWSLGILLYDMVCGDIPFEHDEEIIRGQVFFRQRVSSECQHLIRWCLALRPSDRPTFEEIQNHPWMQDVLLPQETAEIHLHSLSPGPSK
# T4 sequence (Q00536 whole entry): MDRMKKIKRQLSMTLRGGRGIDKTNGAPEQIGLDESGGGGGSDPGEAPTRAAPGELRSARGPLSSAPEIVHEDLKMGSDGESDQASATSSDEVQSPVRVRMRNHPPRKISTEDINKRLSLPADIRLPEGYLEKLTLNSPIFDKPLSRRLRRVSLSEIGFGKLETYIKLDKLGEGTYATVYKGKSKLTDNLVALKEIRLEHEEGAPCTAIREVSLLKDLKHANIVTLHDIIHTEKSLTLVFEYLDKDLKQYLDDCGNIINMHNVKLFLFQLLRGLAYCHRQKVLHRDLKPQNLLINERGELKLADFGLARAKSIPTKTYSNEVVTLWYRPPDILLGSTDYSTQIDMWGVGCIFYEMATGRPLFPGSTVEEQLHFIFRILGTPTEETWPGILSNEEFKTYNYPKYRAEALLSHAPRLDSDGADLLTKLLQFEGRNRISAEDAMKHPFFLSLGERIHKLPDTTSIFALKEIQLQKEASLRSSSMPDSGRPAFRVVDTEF
# T4 sequence (Q8ND76 2-341 partner): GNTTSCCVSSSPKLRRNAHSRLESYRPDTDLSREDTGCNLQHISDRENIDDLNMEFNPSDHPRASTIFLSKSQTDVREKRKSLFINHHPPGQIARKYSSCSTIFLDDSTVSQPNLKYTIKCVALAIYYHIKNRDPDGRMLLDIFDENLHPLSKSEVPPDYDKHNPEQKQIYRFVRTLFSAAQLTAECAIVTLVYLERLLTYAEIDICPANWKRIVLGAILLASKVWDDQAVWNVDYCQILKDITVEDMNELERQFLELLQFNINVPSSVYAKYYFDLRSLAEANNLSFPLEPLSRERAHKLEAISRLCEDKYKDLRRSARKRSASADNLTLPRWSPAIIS
# DYRK1B, sequence (Q9Y463 whole entry): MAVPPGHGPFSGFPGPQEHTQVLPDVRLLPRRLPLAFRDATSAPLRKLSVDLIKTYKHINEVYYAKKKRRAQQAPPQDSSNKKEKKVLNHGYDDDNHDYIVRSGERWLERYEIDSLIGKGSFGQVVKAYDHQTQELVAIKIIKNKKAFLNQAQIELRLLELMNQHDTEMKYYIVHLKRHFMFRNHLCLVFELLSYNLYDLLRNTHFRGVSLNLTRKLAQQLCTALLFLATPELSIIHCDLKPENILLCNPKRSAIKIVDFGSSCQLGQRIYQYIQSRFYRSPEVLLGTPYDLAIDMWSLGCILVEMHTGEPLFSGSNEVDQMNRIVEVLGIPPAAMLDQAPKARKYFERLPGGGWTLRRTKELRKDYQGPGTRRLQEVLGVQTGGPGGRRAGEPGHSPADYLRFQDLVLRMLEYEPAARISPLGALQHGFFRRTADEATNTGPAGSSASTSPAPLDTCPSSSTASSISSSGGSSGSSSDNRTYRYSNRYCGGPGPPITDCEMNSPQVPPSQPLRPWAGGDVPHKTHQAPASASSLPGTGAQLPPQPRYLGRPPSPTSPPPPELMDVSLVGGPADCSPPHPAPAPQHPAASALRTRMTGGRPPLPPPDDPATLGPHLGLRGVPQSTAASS
# STK17A, sequence (Q9UEE5 whole entry): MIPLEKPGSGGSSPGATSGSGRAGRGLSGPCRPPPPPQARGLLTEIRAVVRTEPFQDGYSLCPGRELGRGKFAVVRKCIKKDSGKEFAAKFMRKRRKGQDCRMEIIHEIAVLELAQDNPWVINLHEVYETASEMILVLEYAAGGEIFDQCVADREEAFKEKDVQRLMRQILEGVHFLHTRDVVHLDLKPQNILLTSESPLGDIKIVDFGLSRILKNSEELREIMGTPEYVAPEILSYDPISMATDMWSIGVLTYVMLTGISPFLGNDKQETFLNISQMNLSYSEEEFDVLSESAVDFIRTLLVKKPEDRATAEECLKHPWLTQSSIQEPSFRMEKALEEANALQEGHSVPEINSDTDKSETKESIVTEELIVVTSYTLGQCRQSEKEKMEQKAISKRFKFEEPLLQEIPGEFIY
inhibition at 1 µM (CDK16) [%],inhibition at 1 µM (HIPK1 [2]) [%],inhibition at 1 µM (CDK4-cyclinD3) [%],inhibition at 1 µM (STK17A) [%],SMILES,inhibition at 1 µM (DYRK1B) [%],inhibition at 1 µM (HIPK1 [1]) [%],inhibition at 1 µM (MYLK4) [%],inhibition at 1 µM (HASPIN) [%],inhibition at 1 µM (PIM1) [%],inhibition at 1 µM (PIM3) [%]
–,–,–,–,NC(=O)c1cccc2cn(-c3ccc([C@@H]4CCCNC4)cc3)nc12 [Niraparib],82,40,19,10,22,15
82,-16,10,-6,CNCc1ccc(-c2[nH]c3cc(F)cc4c3c2CCNC4=O)cc1 [Rucaparib],–,–,–,-6,–,–
